In paper PMC6478789, “A chemical toolbox for the study of bromodomains and epigenetic signaling” (Nature Communications, 2019):

Legend:
[1] = biological target: EP300 (Homo sapiens, UniProt Q09472); assay: Histone acetyltransferase (HAT) activity assay; assay type: biochemical;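 also: selectivity screen of bromodomain probe compounds against histone acetyltransferases, with enzyme activity given in percent for compounds tested at 1 and 10 µM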
[2] = biological target: T1, HAT1 (Homo sapiens, UniProt O14929); assay: Histone acetyltransferase (HAT) activity assay; assay type: biochemical;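 also: HAT selectivity screen of BRD probe compounds, enzyme activity in % measured with compound at 1 µM and 10 µM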
T1 sequence (O14929 1-419): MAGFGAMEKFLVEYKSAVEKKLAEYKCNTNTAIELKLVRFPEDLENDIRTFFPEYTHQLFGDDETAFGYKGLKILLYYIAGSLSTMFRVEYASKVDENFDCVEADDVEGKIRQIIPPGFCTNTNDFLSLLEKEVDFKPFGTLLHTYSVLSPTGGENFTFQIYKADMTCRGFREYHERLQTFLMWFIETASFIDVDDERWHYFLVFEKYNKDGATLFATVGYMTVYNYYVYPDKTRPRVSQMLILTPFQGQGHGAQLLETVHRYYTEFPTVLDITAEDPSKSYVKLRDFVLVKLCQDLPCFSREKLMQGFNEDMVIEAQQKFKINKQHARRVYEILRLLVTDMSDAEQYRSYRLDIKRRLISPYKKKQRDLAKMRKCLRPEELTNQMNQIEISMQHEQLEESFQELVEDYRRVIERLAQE

[3] = biological target: T2, MYST1 (Homo sapiens, UniProt Q9H7Z6); assay: Histone acetyltransferase (HAT) activity assay; assay type: biochemical;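 also: selectivity screen across a panel of histone acetyltransferases, with compounds tested at 1 and 10 µM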
T2 sequence (Q9H7Z6 1-458): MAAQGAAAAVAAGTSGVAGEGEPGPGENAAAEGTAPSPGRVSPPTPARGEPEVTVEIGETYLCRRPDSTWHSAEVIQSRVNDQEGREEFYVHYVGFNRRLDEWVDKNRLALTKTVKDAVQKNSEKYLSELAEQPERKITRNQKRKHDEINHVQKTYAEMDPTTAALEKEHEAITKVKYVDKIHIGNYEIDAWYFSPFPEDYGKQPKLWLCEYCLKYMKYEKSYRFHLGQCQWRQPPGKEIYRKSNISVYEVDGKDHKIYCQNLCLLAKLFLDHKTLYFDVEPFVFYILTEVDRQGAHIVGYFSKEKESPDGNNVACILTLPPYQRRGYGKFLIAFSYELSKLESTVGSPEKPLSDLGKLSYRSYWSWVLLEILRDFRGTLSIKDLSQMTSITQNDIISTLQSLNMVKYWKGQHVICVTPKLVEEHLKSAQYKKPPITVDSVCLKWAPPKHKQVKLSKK

[4] = biological target: MYST3 (Homo sapiens, UniProt Q92794); assay: Histone acetyltransferase (HAT) activity assay; assay type: biochemical;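 also: selectivity screen of bromodomain probe compounds across a panel of histone acetyltransferases, read out as enzyme activity in %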
MYST3, sequence (Q92794 whole entry, species assumed): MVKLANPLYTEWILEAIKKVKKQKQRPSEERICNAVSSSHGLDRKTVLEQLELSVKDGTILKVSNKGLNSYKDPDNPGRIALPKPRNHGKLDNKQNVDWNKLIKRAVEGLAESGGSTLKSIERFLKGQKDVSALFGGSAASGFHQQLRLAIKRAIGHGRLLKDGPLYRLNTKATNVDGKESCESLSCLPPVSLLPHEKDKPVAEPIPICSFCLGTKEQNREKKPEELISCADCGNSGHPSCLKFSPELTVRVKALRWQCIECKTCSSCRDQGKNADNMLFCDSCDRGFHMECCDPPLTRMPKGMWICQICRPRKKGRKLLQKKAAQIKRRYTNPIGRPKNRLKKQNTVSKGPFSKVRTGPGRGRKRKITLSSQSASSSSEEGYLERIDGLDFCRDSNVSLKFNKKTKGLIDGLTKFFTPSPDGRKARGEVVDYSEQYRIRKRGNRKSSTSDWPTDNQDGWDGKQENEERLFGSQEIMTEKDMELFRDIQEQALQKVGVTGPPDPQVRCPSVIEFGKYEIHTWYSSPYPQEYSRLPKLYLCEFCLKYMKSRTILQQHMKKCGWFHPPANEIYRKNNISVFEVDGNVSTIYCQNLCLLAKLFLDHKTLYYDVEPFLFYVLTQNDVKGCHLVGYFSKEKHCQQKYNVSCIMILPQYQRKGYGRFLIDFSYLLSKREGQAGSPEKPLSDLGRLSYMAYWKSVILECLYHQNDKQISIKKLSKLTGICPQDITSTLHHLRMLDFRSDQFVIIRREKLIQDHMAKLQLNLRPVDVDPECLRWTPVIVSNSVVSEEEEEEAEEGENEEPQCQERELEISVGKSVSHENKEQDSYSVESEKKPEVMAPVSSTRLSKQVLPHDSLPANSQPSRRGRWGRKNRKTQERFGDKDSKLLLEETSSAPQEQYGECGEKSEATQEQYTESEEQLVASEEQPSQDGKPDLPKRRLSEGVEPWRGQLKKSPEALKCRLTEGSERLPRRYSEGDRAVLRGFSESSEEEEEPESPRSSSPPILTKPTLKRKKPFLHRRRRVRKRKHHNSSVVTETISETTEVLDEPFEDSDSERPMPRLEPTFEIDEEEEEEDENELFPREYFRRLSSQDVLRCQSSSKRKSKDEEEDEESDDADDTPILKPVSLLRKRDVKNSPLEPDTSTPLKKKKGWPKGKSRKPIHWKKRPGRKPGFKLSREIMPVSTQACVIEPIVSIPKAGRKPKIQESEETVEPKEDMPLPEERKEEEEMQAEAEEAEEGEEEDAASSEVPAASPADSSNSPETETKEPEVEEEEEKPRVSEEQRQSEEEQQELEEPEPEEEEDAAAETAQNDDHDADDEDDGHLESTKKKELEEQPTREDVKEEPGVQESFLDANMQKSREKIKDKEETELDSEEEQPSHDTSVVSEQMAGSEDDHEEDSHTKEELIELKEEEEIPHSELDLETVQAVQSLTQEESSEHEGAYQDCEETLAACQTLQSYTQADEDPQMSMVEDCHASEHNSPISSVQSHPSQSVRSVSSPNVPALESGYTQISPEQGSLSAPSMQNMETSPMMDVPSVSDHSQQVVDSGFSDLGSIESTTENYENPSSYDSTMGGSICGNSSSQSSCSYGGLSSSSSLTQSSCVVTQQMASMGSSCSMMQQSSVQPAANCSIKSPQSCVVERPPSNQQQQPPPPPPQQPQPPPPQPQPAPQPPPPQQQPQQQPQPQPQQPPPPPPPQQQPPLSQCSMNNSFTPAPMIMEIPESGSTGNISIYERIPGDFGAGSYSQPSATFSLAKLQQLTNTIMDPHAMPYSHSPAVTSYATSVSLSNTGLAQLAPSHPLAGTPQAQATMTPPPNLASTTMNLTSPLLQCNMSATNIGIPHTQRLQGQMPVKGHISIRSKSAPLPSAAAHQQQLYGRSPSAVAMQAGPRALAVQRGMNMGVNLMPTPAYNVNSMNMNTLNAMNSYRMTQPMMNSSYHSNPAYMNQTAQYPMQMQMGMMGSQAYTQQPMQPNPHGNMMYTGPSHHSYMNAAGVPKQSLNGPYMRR

[5] = biological target: GCN5L2 (Homo sapiens, UniProt Q92830); assay: Histone acetyltransferase (HAT) activity assay; assay type: biochemical;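 also: selectivity screen of BRD probe compounds across a panel of histone acetyltransferases, HAT activity in % with compound at 1 or 10 µM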
[6] = test system: MDA-MB-436 cells; assay: Confluency with BRPF inhibitors and BAY-876; assay type: cell-based, human; settings: 3 μM, 7 days
Description: Graph indicates mean, error bars denote s.d. from eight wells (from two independent assays) and p-value was computed using the Benjamini-Hochberg t test; ***p < 0.001. d Immunoblot validation of BRPF knockdown in MDA-MB-436 cells. e Quantitative real-time PCR (RT-qPCR) validation of BRPF knockdown in MDA-MB-436 cells. […] Raw data images are available in Supplementary Fig. 4
TNBC cell lines were seeded in sterile, transparent 384-well plates at 500 cells per well in 50 µl media. Chemical probes were delivered in dimethyl sulfoxide (DMSO). Cell confluency at 7 days was evaluated using an Incucyte ZOOM live cell imaging device (Essen Bioscence) and analyzed with the Incucyte ZOOM (2016A) software based on phase contrast image.

[7] = biological target: BRPF1B; settings: ITC data; ref 11 (suppl.); cited from earlier work
[8] = biological target: BRPF2; settings: ITC data; ref 11 (suppl.); cited from earlier work
[9] = biological target: BRD9; settings: ITC data; ref 11 (suppl.); read-out: KD (nM), off target BRD9; cited from earlier work
[10] = biological target: T3, ATAD2A (Homo sapiens, UniProt Q6PL18); assay: BROMOscan ligand-binding assay; settings: read-out: KD (BROMOscan); sheet prints no unit (nM)
T3 sequence (Q6PL18 980-1092 limits assumed): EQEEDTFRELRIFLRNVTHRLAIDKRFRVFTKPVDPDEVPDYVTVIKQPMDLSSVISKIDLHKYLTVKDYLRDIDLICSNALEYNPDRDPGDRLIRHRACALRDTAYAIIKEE
Description: (§1) BROMOscan is a binding assay based on the well-known KINOMEscan technology. This assay measures the binding of a DNA-tagged bromodomain to an immobilized BRD ligand. If an inhibitor is present, it will compete with the bromodomain binding to the immobilized ligand, resulting in reduction of a quantitative PCR (qPCR) signal in a dose-dependent manner.

[11] = biological target: T4, ATAD2B (Homo sapiens, UniProt Q9ULI0); assay: BROMOscan ligand-binding assay; settings: read-out: KD (BROMOscan); sheet prints no unit (nM)
T4 sequence (Q9ULI0 951-1066 limits assumed): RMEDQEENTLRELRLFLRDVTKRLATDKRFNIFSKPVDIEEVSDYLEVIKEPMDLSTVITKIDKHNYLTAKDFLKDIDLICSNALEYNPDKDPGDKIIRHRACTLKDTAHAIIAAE
Description: as §1

[12] = biological target: T5, BAZ2B (Homo sapiens, UniProt Q9UIF8); assay: BROMOscan ligand-binding assay; settings: read-out: KD (BROMOscan); sheet prints no unit (nM)
T5 sequence (Q9UIF8 2060-2164 limits assumed): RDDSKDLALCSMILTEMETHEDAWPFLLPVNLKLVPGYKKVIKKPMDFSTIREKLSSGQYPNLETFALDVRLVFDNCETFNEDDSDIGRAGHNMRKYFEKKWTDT
Description: as §1

[13] = biological target: T6, BRD1 (Homo sapiens, UniProt O95696); assay: BROMOscan ligand-binding assay; settings: read-out: KD (BROMOscan); sheet prints no unit (nM)
T6 sequence (O95696 562-666 limits assumed): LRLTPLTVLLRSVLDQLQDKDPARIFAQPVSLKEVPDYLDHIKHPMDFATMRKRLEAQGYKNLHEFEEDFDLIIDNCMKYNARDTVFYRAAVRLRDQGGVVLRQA
Description: as §1

[14] = biological target: BRD2(1) (Homo sapiens, UniProt P25440); assay: BROMOscan ligand-binding assay; settings: read-out: KD (BROMOscan); sheet prints no unit (nM)
Description: as §1

[15] = biological target: BRD2(1,2) (Homo sapiens, UniProt P25440); assay: BROMOscan ligand-binding assay; settings: read-out: KD (BROMOscan); sheet prints no unit (nM)
BRD2(1,2), sequence (P25440 71-455 limits assumed): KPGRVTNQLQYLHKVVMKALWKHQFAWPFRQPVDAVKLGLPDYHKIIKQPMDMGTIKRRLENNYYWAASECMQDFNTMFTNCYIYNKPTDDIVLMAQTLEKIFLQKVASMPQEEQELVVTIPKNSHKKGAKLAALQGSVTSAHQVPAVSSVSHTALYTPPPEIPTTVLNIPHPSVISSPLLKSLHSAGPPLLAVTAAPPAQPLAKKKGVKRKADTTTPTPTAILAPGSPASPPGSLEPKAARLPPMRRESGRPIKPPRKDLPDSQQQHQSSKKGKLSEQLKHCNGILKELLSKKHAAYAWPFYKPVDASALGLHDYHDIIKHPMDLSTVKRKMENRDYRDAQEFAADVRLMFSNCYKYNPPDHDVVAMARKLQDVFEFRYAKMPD
Description: as §1

[16] = biological target: BRD2(2) (Homo sapiens, UniProt P25440); assay: BROMOscan ligand-binding assay; settings: read-out: KD (BROMOscan); sheet prints no unit (nM)
Description: as §1

[17] = biological target: BRD3(1) (Homo sapiens, UniProt Q15059); assay: BROMOscan ligand-binding assay; settings: read-out: KD (BROMOscan); sheet prints no unit (nM)
BRD3(1), sequence (Q15059 34-140 limits assumed): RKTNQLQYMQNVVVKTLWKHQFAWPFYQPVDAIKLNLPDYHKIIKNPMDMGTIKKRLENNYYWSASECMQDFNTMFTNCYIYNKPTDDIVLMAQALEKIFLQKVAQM
Description: as §1

[18] = biological target: BRD3(1,2) (Homo sapiens, UniProt Q15059); assay: BROMOscan ligand-binding assay; settings: read-out: KD (BROMOscan); sheet prints no unit (nM)
Description: as §1

[19] = biological target: BRD3(2) (Homo sapiens, UniProt Q15059); assay: BROMOscan ligand-binding assay; settings: read-out: KD (BROMOscan); sheet prints no unit (nM)
BRD3(2), sequence (Q15059 306-415 limits assumed): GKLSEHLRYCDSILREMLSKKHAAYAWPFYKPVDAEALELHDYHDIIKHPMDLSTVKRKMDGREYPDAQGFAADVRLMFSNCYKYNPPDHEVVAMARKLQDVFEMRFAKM
Description: as §1

[20] = biological target: BRD4(1) (Homo sapiens, UniProt O60885); assay: BROMOscan ligand-binding assay; settings: read-out: KD (BROMOscan); sheet prints no unit (nM)
Description: as §1

[21] = biological target: BRD4(1,2) (Homo sapiens, UniProt O60885); assay: BROMOscan ligand-binding assay; settings: read-out: KD (BROMOscan); sheet prints no unit (nM)
Description: as §1

[22] = biological target: BRD4(2) (Homo sapiens, UniProt O60885); assay: BROMOscan ligand-binding assay; settings: read-out: KD (BROMOscan); sheet prints no unit (nM)
Description: as §1

[23] = biological target: T7, TAF1(2) (Homo sapiens, UniProt P21675); assay: BROMOscan ligand-binding assay; settings: read-out: KD (BROMOscan); sheet prints no unit (nM)
T7 sequence (P21675 1519-1628 limits assumed): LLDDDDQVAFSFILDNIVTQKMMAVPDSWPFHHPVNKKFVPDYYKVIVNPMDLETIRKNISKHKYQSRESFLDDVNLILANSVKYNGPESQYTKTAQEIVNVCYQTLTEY
Description: as §1

EP300, sequence (Q09472 whole entry, species assumed): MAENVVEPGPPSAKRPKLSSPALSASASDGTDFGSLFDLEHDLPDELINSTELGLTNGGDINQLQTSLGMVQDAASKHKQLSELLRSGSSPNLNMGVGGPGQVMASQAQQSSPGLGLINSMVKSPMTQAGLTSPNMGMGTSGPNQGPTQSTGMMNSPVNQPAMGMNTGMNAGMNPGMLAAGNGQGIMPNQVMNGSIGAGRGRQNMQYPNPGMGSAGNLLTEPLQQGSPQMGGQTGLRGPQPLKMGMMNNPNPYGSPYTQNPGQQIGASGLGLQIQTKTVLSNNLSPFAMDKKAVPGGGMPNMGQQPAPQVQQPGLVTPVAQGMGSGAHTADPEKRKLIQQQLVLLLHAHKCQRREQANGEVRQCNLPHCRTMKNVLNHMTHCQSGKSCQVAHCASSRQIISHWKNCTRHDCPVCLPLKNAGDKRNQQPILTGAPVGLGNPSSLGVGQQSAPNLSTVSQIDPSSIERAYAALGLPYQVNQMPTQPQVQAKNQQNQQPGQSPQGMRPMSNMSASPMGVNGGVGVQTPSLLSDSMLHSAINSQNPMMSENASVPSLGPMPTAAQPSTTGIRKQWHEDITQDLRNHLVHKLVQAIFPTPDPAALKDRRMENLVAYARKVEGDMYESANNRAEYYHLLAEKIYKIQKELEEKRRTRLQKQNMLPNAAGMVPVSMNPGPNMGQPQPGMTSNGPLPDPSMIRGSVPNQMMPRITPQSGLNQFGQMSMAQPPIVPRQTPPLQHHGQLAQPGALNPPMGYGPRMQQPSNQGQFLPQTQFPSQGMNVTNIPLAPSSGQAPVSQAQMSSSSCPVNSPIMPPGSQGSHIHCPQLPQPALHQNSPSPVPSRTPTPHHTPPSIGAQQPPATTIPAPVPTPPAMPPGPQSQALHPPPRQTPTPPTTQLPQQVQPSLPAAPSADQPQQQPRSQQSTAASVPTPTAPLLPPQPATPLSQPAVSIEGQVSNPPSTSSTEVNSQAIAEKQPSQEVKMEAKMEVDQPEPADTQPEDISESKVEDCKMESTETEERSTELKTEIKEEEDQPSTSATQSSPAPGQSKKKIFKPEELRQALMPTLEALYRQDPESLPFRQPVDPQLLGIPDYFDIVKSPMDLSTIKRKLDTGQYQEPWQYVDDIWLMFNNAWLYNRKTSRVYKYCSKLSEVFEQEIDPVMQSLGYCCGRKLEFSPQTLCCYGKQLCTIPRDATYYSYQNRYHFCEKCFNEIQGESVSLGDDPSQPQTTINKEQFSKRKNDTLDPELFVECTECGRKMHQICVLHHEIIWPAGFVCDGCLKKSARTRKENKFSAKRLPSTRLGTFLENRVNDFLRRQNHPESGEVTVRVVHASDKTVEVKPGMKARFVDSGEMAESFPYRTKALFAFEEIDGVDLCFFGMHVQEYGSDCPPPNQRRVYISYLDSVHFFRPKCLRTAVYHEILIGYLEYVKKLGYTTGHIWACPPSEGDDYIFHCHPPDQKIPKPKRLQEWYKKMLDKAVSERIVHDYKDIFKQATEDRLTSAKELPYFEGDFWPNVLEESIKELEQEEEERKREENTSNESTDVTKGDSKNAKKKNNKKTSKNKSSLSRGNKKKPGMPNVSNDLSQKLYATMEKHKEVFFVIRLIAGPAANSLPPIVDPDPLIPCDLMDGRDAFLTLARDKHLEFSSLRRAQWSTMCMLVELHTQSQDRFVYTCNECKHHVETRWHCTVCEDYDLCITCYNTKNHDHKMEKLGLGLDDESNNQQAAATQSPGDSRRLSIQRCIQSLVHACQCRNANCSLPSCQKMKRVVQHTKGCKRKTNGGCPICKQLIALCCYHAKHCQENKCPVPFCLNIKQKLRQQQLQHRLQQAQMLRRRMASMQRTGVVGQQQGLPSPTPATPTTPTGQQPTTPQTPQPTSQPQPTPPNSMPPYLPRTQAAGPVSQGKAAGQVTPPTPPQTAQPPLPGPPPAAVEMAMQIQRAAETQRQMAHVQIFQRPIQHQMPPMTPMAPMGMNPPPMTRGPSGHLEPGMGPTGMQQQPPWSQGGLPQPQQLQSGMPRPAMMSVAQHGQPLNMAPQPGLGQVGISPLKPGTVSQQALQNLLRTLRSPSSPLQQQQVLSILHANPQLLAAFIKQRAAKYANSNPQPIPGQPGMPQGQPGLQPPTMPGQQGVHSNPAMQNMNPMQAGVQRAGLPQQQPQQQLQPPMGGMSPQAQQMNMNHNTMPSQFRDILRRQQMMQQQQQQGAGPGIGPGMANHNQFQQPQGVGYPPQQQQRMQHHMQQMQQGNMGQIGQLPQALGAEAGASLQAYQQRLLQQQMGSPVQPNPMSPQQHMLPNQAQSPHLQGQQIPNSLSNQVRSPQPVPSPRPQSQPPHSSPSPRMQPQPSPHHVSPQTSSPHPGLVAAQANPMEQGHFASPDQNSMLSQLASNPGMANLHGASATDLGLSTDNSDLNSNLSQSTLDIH

For `COc1cc(C#N)ccc1S(=O)(=O)Nc1ccc2c(c1)cc(C)c(=O)n2C` [NIC57], the “HATs Activity (%)” value ([1]; 1µM) was 94%, the “HATs Activity (%)” value ([1]; 10µM) was 93% and the “HATs Activity (%)” value ([2]; 1µM) was 104%. For the same compound, the “HATs Activity (%)” value ([2]; 10µM) was 104%, the “HATs Activity (%)” value ([3]; 1µM) was 96% and the “HATs Activity (%)” value ([3]; 10µM) was 91%. The “HATs Activity (%)” value ([4]; 1µM) was 98%, the “HATs Activity (%)” value ([4]; 10µM) was 99% and the “HATs Activity (%)” value ([5]; 1µM) was 100%. The “HATs Activity (%)” value ([5]; 10µM) was 96%, the “synergy with BAY-876” value [6] was “no synergy” and the Kd [7] was 31 nM. For the same compound, the Kd [8] was 108 nM, the Kd [9] was 998 nM and the Kd [10] was > 30000 nM. The Kd [11] was > 30000 nM, the Kd [12] was 9400 nM and the Kd [13] was 46 nM. For the same compound, the Kd [14] was 5900 nM, the Kd [15] was 12000 nM and the Kd [16] was > 30000 nM. For the same compound, the Kd [17] was 7200 nM, the Kd [18] was 12000 nM and the Kd [19] was > 30000 nM. The Kd [20] was 3300 nM, the Kd [21] was 15000 nM and the Kd [22] was > 30000 nM. The Kd [23] was 4900 nM.
